Patent US10030064B2, “Mammalian cell culture processes for protein production” (priority 2009, dated 2018)

How the values were obtained:
Assay type in all cases: cell-based, Chinese hamster
[1] = system: CHO DG44 cell line expressing the fusion glycoprotein; assay: Shake flask CHO culture: total sialic acid content, N-linked and O-linked oligosaccharide profile of the secreted fusion glycoprotein
Protocol: The CHO cell line used in this study was originally subcloned from DG44 parental cells and cultured in a proprietary protein-free growth medium.
(§1) The experiments were carried out in 250-mL shake flasks (VWR international) with starting volumes of 100 mL and initial cell densities of 6×10^5 cells/mL. The cultures were placed on a shaker platform (VWR international) at 150 rpm and maintained at 37° C. and 6% CO2 for ten days. The cultures were sampled daily and the pH was adjusted as needed using 1M sodium carbonate and fed with glucose and glutamine every two days in order to maintain them at adequate levels. Cell density and viability were measured offline using a Cedex automated cell counter (Innovatis AG, Bielefeld, Germany). Culture pH and concentrations for glucose and glutamine were measured off-line using a Bioprofile Analyzer 400 (Nova Biomedical Corporation, Waltham, Mass.).
The sialic acid to recombinant protein molar ratio was calculated by determining the sialic acid and recombinant protein concentrations. Sialic acid (SA), including N-Acetylneuraminic (Neu5Ac) and N-glycolylneuraminic acid (Neu5Gc), was released by partial acid hydrolysis. The derivatives were then separated by reversed-phase HPLC to determine sialic acid content. The protein concentrations were determined by UV absorbance at 280 nm. Sialic acid content is reported as molar ratios, which is the total moles of Neu5Ac and Neu5Gc per mole of recombinant glycoprotein. Sialic acid contents are reported as normalized values, which are the actual values divided by an arbitrary value. The same divisor was used to normalize all sialic acid content data in the studies reported here.
High-pH anion-exchange chromatography with pulsed amperometric detection (HPAEC-PAD) was used for the profiling of N-linked oligosaccharides (Base and Spellman 1990; Townsend and Hardy 1991) to provide information on site-specific N-linked glycosylation. N-linked oligosaccharides were cleaved from protein and separated on HPAEC-PAD into four domains based on the amount of sialic acid present. Domain I represents the asialo species. Domains II, III, and IV are sialylated species and represent monosialylated, disialylated, and tri- and tetrasialylated species, respectively. N-linked sialylated species fraction is reported as the percentage of N-linked sialylated species within the total N-linked oligosaccharides species, which includes both asialo and sialylated species. N-linked sialylated species fractions are reported as normalized values, which are the actual values divided by an arbitrary value. The same divisor was used to normalize all N-linked sialylated species fraction data in the studies reported here.
O-linked glycosylation was characterized by intact mass analysis of a reference standard and Protein-A purified samples of the fusion protein (Reference). Samples were diluted in 100 mM Tris, 25 mM NaCl, pH 7.6 and incubated with PNGase F overnight to enzymatically remove all N-linked oligosaccharides. Samples were then injected for intact mass analysis after mixing with an internal standard of insulin. O-linked sialic acid content is reported as molar ratios, which is the moles of O-linked sialic acid per mole of recombinant glycoprotein.
This study was performed in duplicate 250-mL shake flasks using the culture conditions as described above. […] Cultures were harvested on day 10, and the fusion protein was purified using a protein A column and analyzed for total sialic acid content, O-linked sialic acid content and the N-linked profile.

[2] = system: CHO cells; assay: Shake flask CHO culture in serum free medium: viable cell density, viability, growth rate, productivity (Example 3)
Protocol: The CHO cell line used in this study was subcloned from DG44 parental cells and cultured in a proprietary chemically-defined growth medium.
The experiments were carried out in 250-mL shake flasks (VWR international) with starting volumes of 100 mL and initial cell densities of 6×10^5 cells/mL. The cultures were placed on a shaker platform (VWR international) at 150 rpm and maintained at 37° C. and 6% CO2 for ten days. The cultures were sampled daily and the pH adjustment using 1M sodium carbonate, and fed with glucose and glutamine every two days in order to maintain them at certain levels. Cell density and viability were measured off-line a Bioprofile Analyzer 400 (Nova Biomedical Corporation, Waltham, Mass.).
The eluted protein was quantified using a 10-level standard curve.

[3] = system: CHO cells; assay: Fed-batch 7-L, 500-L and 5000-L bioreactors with dexamethasone in the feed medium (Example 5)
Protocol: The CHO cell line used in this study was subcloned from DG44 parental cells and cultured in a proprietary growth medium.
Bioreactor experiments were performed in 7-L, 500-L and 5000-L bioreactors with starting working volumes around 3 L, 300 L and 3000 L, respectively. All the bioreactor runs started at 37° C. and shifted to lower temperature when cells entered production phase in order to extend the cell culture period. pH, and dissolved oxygen were maintained at 7.05, and 50% air saturation. Agitation rates for 7-L, 500-L and 5000-L scales are 180, 75 and 60 rpm respectively. All the bioreactor experiments were conducted in a fed batch mode with daily feeding of a protein-free medium in order to maintain the glucose and other nutrients at certain levels. […] Samples were taken during the cell culture process and analyzed for cell density, cell viability, substrates and metabolites.
The titer, sialic acid and HMW content assay were performed as described in the previous examples.

[4] = system: CHO cells; assay: Shake flask CHO culture: cell viability profile (Example 1); conditions: 1 μM DEX from day 2
Protocol: as §1

[5] = 0.1 μM DEX, with 1 μM RU-486 added 24 hours before DEX
[6] = DEX 0.01 μM added day 2, harvest day 10
[7] = DEX 0.1 μM added day 2, harvest day 10
[8] = DEX 1.0 μM added day 2, harvest day 10
[9] = DEX 10 μM added day 2, harvest day 10
[10] = 10 μM DEX added two days after inoculation
[11] = treatment concentration 0.1 μM, added two days after inoculation
[12] = treatment concentration 1 μM, added two days after inoculation
[13] = treatment concentration 10 μM, added two days after inoculation

C[C@@H]1C[C@H]2[C@@H]3CCC4=CC(=O)C=C[C@]4(C)[C@@]3(F)[C@@H](O)C[C@]2(C)[C@@]1(O)C(=O)CO [DEX, dexamethasone]
normalized N-linked sialylated species fraction [1, 5]: 81.5±0.8 | normalized total sialic acid content [1, 5]: 12.7±0.1 | normalized N-linked sialylated species fraction ([1]; 0.1 μM DEX, without RU-486): 92.2±2.0 | Percent increase of N-link asialo- [1, 6]: −8.6% | Percent increase of N-link-Di- [1, 6]: 13.9% | Percent increase of N-link-Mono- [1, 6]: 6.6% | Percent increase of N-link-Tri and tetra- [1, 6]: 4.5% | Percent increase of O-link SA [1, 6]: 0.0% | Percent increase of SA ([1]; DEX 0.01 μM added day 2, harvest day 10, vs control): 9.3% | Percent increase of N-link asialo- [1, 7]: −9.6% | Percent increase of N-link-Di- [1, 7]: 13.9% | Percent increase of N-link-Mono- [1, 7]: 7.3% | Percent increase of N-link-Tri and tetra- [1, 7]: 13.6% | Percent increase of O-link SA [1, 7]: 0.5% | Percent increase of SA ([1]; DEX 0.1 μM added day 2, harvest day 10, vs control): 13.0% | Percent increase of N-link asialo- [1, 8]: −10.0% | Percent increase of N-link-Di- [1, 8]: 19.4% | Percent increase of N-link-Mono- [1, 8]: 4.3% | Percent increase of O-link SA [1, 8]: 0.9% | Percent increase of SA ([1]; DEX 1.0 μM added day 2, harvest day 10, vs control): 13.0% | Percent increase of N-link asialo- [1, 9]: −15.6% | Percent increase of N-link-Di- [1, 9]: 24.3% | Percent increase of N-link-Mono- [1, 9]: 7.3% | Percent increase of N-link-Tri and tetra- [1, 9]: 20.5% | Percent increase of O-link SA [1, 9]: 0.0% | Percent increase of SA ([1]; DEX 10 μM added day 2, harvest day 10, vs control): 20.4% | final cell viability (day 10) ([2]; 0.01 μM DEX added two days after inoculation): 53.1% | percent increase of cell viability induced by DEX ([2]; 0.1 μM DEX, with 1 μM RU-486): 4.7% | percent increase of cell viability induced by DEX ([2]; 0.1 μM DEX, without RU-486): 30.5% | maximum specific productivity (normalized) ([2]; 1 μM DEX added day 2): 7.0±0.6 ×10^−9 | normalized volumetric productivity ([2]; 1 μM DEX added day 2, same for all cultures): 6.5 | reduction in cell growth rates compared to control ([2]; 1 μM DEX added day 2, the day after DEX addition): ~30% | viability on day 10 ([2]; 1 μM DEX added on day 0): 63% | viability on day 10 ([2]; 1 μM DEX added on day 2): 68% | viability on day 10 ([2]; 1 μM DEX added on day 4): 72% | viability on day 10 ([2]; 1 μM DEX added on day 6): 74% | percent increase of cell viability induced by DEX ([2]; 1 μM DEX, with 1 μM RU-486): 5.7% | percent increase of cell viability induced by DEX ([2]; 1 μM DEX, without RU-486): 32.6% | Peak VCD [2, 10]: 6.5 ×10^6 cell/mL | final cell viability (day 10) [2, 10]: 64.0% | Final VCD [2, 11]: 7.64 ×10^6 cells/mL | Peak VCD [2, 11]: 7.99 ×10^6 cells/mL | Viability (final, day 10) [2, 11]: 72.3% | Final VCD [2, 12]: 8.40 ×10^6 cells/mL | Peak VCD [2, 12]: 9.02 ×10^6 cells/mL | Viability (final, day 10) [2, 12]: 75.8% | Final VCD [2, 13]: 7.38 ×10^6 cells/mL | Peak VCD [2, 13]: 7.49 ×10^6 cells/mL | Viability (final, day 10) [2, 13]: 82.3% | Day 14 average viability ([3]; 7-L scale): 88% | Day 14 titer (normalized value) ([3]; 7-L scale): 13.2 | Peak sialic acid level (normalized value) ([3]; 7-L scale): 16.0 | Day 14 average viability ([3]; 500-L scale): 84% | Day 14 titer (normalized value) ([3]; 500-L scale): 11.6 | Peak sialic acid level (normalized value) ([3]; 500-L scale): 18.0 | Day 14 average viability ([3]; 5000-L scale): 91% | Day 14 titer (normalized value) ([3]; 5000-L scale): 13.6 | Peak sialic acid level (normalized value) ([3]; 5000-L scale): 19.0 | drop of sialic acid by the end of the runs ([3]; all scales): approximately 2.6 units | Cell viability ([4]; day 4): 98.0±0.1% | Cell viability ([4]; day 10): 85.0±2.7%
